This note sets out measurements from patent US11673853B2, “Small molecule AMPK activators” (University of Pittsburgh—Of the Commonwealth System of …, priority 2016, dated 2023).

Each structure is given as a SMILES string.

For test [1], the system named is C57BL6 mice. The experiment in a line: LPS-induced sepsis model. The following applies: i.p., LPS (E. coli) 3 mg/kg i.p. after 10 min, blood at 2 h. The class given is in vivo. On the procedure: FIG. 5. C57BL6 mice were administered i.p. vehicle, 0.04, 0.2, 1 or 5 mg/kg of Compound 12. After 10 min, mice were given LPS (E. coli, 3 mg/kg) through an i.p. injection and, after 2 h, mice were euthanized and blood was collected for IL1-β, IL-6 and TNFα measurements. Shown in panels (D)-(F) is % inhibition of cytokine levels as a function of drug dose. The data represent n=3 mice/group at each dose. Protein (A), cell counts (B), bacterial count (C), and presence of AMPK and pAMPK (G) were also determined.
(§1) FIG. 11. (A-B.) C57BL6 mice were administered i.p. vehicle, 0.08, 0.4, 2 or 10 mg/kg of Compound 23. After 10 min, mice were given LPS (E. coli, 3 mg/kg) through an i.p. injection and, after 2 h, mice were euthanized and blood collected for IL-6 and TNFα measurements. Shown in panels (A-B.) are the cytokine levels as a function of drug dose. The data represent n=3 mice/group at each dose. (C-G) Compound 23 (2 or 10 mg/kg) was administered to mice though an i.p. injection, and mice were immediately challenged with LPS (E. coli, 3 mg/kg, i.t.) or without (control, CON) for an additional 18 h. Mice were then euthanized and lungs were lavaged with saline, harvested, and then homogenized. Lavage protein (C), cell counts (D) and cytokine secretions (E-G) were measured. The data are representative of data from n=5 mice/group, *P<0.05 versus vehicle.
In a sepsis model, Compound 12 was administered to mice at various doses through an i.p. injection, and, after 10 min, the mice were given LPS (E. coli; 3 mg/kg i.p.). Two hours later, the mice were euthanized, and blood was collected and assayed for IL-1β, IL-6 and TNFα cytokine levels.
(§2) Compound 23 was tested in a sepsis model. Compound 23 was administered to mice at various doses through an i.p. injection, and 10 min later, mice were given LPS (E. coli; 3 mg/kg i.p.). After 2 h, mice were euthanized and blood was collected and assayed for IL-6 and TNFα cytokine levels. […] Finally, Compound 23 was tested in a pneumonia model using LPS endotoxin. […] Thus Compound 23 protects the lung against LPS induced lung injury.

In test [2] the test system is PBMC cells. The experiment in a line: LPS-induced cytokine release from PBMCs (ELISA). It counts as cell-based. The procedure: FIG. 4. (A) Beas2b cells were cultured in DMEM 2% media with glucose for 24 h before switching to glucose-free media. Cells were then exposed to Compound 12 in a dose dependent manner for 18 h before being collected for immunoblotting. (B) Beas2b cells were cultured in DMEM 2% media with glucose for 24 h before Compound 12 treatment in a dose dependent manner. After 18 h, cells were then collected for immunoblotting. (C) Beas2b cells were cultured in DMEM 2% media with glucose for 24 h before switching to glucose-free media. Cells were then exposed to Compound 12 for 18 h before being collected for mRNA analysis. (D) 50K PBMC cells were cultured in 96 well plates before being exposed to Compound 12 for 4 h. Cells were then treated with LPS (10 ng/ml) for additional 2 h. Media were then collected and IL-1b concentration was determined by ELISA.
FIG. 10. (A) 50K PBMC cells were cultured in 96 well plates before being exposed to Compound 23 for 18 h. Cells were then treated with LPS (10 ng/ml) for additional 4 h. Media were then collected and TNF and IL-1b concentration were determined by ELISA. (B) PBMC cells (1 mL at 1.0×10^6/ml) were treated with Compound 23 (5 μM) for 18 h. Cells were then treated with 100 ng/ml LPS for 4 h. Cytokine release was monitored by the human cytokine array (R&D systems). The results from a cytokine array dot blot were quantitated and graphed.
A SAR study was performed by constructing analogs of Compound 1. […] Compound 12 was further tested in PBMCs. Briefly, PBMCs were treated with Compound 12 at various concentrations for 4 h before exposure to LPS (10 ng/ml) for 2 h.
Compound 23 was tested in in vitro inflammatory assays. 50K PBMC cells were cultured in 96 well plates before being exposed to Compound 23 for 18 h. Cells were then treated with LPS (10 ng/ml) for additional 4 h. Media were then collected and assayed for TNF and IL-1b. […] Cytokine arrays were used to profile which cyotokine/chemokines were regulated by Compound 23.

Test [3] concerns mice. The experiment in a line: LPS pneumonia model. The class given is in vivo. The following applies: 2 or 10 mg/kg i.p., LPS 3 mg/kg i.t., 18 h. The procedure: FIG. 8. Compound 12 (2 or 10 mg/kg) was administered to mice though an i.p. injection, and mice were immediately challenged with LPS (E. coli, 3 mg/kg, i.t.) or without (control, CON) for an additional 18 h. Mice were then euthanized and lungs were lavaged with saline, harvested, and then homogenized. Lavage protein (H), cell counts (I) and cytokine secretions (E-G) were measured. Lungs were homogenized before being assayed by immunoblotting. The data are representative of data from n=5-6 mice/group, *P<0.05 versus vehicle. Serum cytokines (A-C) and peritoneal bacteria (D) were also measured.
as §1
Compound 12 was tested in two pneumonia model using Pseudomonas or LPS endotoxin.
as §2

Where [4] appears, read: compound 18 h, then LPS 10 ng/ml 4 h.

`OC(COc1ccc(F)cc1)CN(Cc1ccccc1)Cc1ccccc1` (stereo not drawn) [Compound 12]: in test [1], the “ID50 IL-1β” value was 0.1 mg/kg, the “ID50 IL-6” value turned out to be 0.4 mg/kg and the “ID50 TNF-α” value is reported as 0.4 mg/kg. Moreover, the “LPS induced IL-1 release from PBMCs” value in test [2] (compound 4 h, then LPS 10 ng/ml 2 h) is recorded as “potently inhibit”. In addition, in test [3], the lavage cell counts entry is “significantly decreased”, the lavage cytokine release entry was “significantly decreased” and the lavage protein concentration result is on record as “significantly decreased”. In addition, the “pAMPK levels within the lung tissue” value in test [3] (immunoblotting) is “effectively increased”.

For the compound `OC(COc1ccc(C(F)(F)F)cc1)CN(Cc1ccccc1)Cc1ccccc1` (stereo not drawn) [Compound 23], in test [1], the “ID50 IL-6” value is 0.4 mg/kg and the “ID50 TNF-α” value was determined as 0.4 mg/kg. Moreover, in test [2] (setting [4]), the IL-1b in media entry was “dose dependently decreased” and the TNF in media result is reported as “dose dependently decreased”. In test [3], the lavage cell counts entry is listed as “substantially decreased”, the lavage cytokine release entry is “effectively reduces” and the lavage protein concentration entry is “substantially decreased”.
